Values joined by “and” are separate entries in the source; they are usually repeats but may differ in a detail not shown here. Identical values can stand only once.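 Cultured in 96-well plates, cells were exposed to test compound for 48 hours across five concentrations. Abbreviation: GI50, concentration required for 50% inhibition of growth. Definition used: TGI = concentration required for complete inhibition of growth.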
Tests used:
Test in all cases: NCI tumour cell line growth inhibition, 48 h
786-0 renal = tested on: 786-0 renal
CCRF-CEM leukemia = tested on: CCRF-CEM leukemia
KM12 colon = tested on: KM12 colon
NCI-H522 lung = tested on: NCI-H522 lung
SF-268 CNS = tested on: SF-268 CNS
SK-MEL-28 melanoma = tested on: SK-MEL-28 melanoma
SN12C renal = tested on: SN12C renal
SR leukemia = tested on: SR leukemia
UACC-257 melanoma = tested on: UACC-257 melanoma
PC-3 prostate = tested on: PC-3 prostate

Cn1sc2ccccc2c1=S
TGI (786-0 renal): 13.6 µM
TGI (CCRF-CEM leukemia): 14.8 µM
TGI (KM12 colon): 25.3 µM
TGI (NCI-H522 lung): 9.36 µM
TGI (SF-268 CNS): 9.79 µM
TGI (SK-MEL-28 melanoma): 22 µM
TGI (SN12C renal): 18.2 µM
TGI (SR leukemia): 38.7 µM
TGI (UACC-257 melanoma): 21.3 µM

COc1ccccc1NC(=O)C(CC(C(=O)Nc1ccccc1OC)/C(C)=N/NC(=O)c1ccccc1O)/C(C)=N/NC(=O)c1ccccc1O (stereo not drawn)
TGI (786-0 renal): > 100 µM
TGI (CCRF-CEM leukemia): > 100 µM
TGI (KM12 colon): > 100 µM
TGI (NCI-H522 lung): > 100 µM
TGI (SF-268 CNS): > 100 µM
TGI (SK-MEL-28 melanoma): > 100 µM
TGI (SN12C renal): > 100 µM
TGI (UACC-257 melanoma): > 100 µM

COC(=O)C1=C(C)N(NC(N)=O)C(C)(O)C12CCOC2=O (stereo not drawn)
TGI (786-0 renal): > 100 µM
TGI (CCRF-CEM leukemia): > 100 µM
TGI (KM12 colon): > 100 µM
TGI (NCI-H522 lung): > 100 µM
TGI (SF-268 CNS): > 100 µM
TGI (SK-MEL-28 melanoma): > 100 µM
TGI (SN12C renal): > 100 µM
TGI (UACC-257 melanoma): > 100 µM

FC(F)(F)c1cccc(C2SCc3nc4ccccc4n32)c1 (stereo not drawn)
TGI (786-0 renal): > 100 µM
TGI (CCRF-CEM leukemia): > 100 µM
TGI (KM12 colon): > 100 µM
TGI (NCI-H522 lung): > 100 µM
TGI (SF-268 CNS): > 100 µM
TGI (SK-MEL-28 melanoma): > 100 µM
TGI (SN12C renal): > 100 µM
TGI (SR leukemia): > 100 µM
TGI (UACC-257 melanoma): > 100 µM

COc1ccc(C2C3=C(COC3=O)Oc3cc4c(cc32)OCO4)cc1 (stereo not drawn)
TGI (786-0 renal): > 100 µM
TGI (CCRF-CEM leukemia): > 100 µM
TGI (SK-MEL-28 melanoma): > 100 µM
TGI (SN12C renal): > 100 µM
TGI (UACC-257 melanoma): > 100 µM

CCCCCCCCCCCCC(CCCCCCCCCCCC)OP(=O)(O)O
TGI (786-0 renal): > 100 µM
TGI (CCRF-CEM leukemia): > 100 µM
TGI (KM12 colon): > 100 µM
TGI (NCI-H522 lung): > 100 µM
TGI (SF-268 CNS): > 100 µM
TGI (SK-MEL-28 melanoma): > 100 µM
TGI (SN12C renal): > 100 µM
TGI (SR leukemia): > 100 µM
TGI (UACC-257 melanoma): > 100 µM

O=C(O)[C@@H](NS(=O)(=O)c1ccc([N+](=O)[O-])cc1)c1ccccc1
TGI (786-0 renal): > 100 µM
TGI (CCRF-CEM leukemia): > 100 µM
TGI (KM12 colon): > 100 µM
TGI (NCI-H522 lung): > 100 µM
TGI (SF-268 CNS): > 100 µM
TGI (SK-MEL-28 melanoma): > 100 µM
TGI (SN12C renal): > 100 µM
TGI (UACC-257 melanoma): > 100 µM

CCOC(=O)C(C(=O)OCC)=c1sc(=C(C(=O)OCC)C(=O)OCC)s1
TGI (786-0 renal): > 100 µM
TGI (CCRF-CEM leukemia): > 100 µM
TGI (KM12 colon): > 100 µM
TGI (NCI-H522 lung): > 100 µM
TGI (SF-268 CNS): > 100 µM
TGI (SK-MEL-28 melanoma): > 100 µM
TGI (SN12C renal): > 100 µM
TGI (UACC-257 melanoma): > 100 µM

CCCN1C(=O)CNC(=O)c2[nH]cnc21
TGI (786-0 renal): > 100 µM
TGI (CCRF-CEM leukemia): > 100 µM
TGI (KM12 colon): > 100 µM
TGI (NCI-H522 lung): > 100 µM
TGI (SF-268 CNS): > 100 µM
TGI (SK-MEL-28 melanoma): > 100 µM
TGI (SN12C renal): > 100 µM
TGI (SR leukemia): > 100 µM
TGI (UACC-257 melanoma): > 100 µM

COc1cc(Nc2nc3cc(C(F)(F)F)ccc3nc2C)cc(OC)c1OC
TGI (786-0 renal): 24.8 µM
TGI (CCRF-CEM leukemia): 24.3 µM
TGI (KM12 colon): 21.5 µM
TGI (NCI-H522 lung): 25 µM
TGI (SF-268 CNS): 33.5 µM
TGI (SK-MEL-28 melanoma): 25.3 µM
TGI (SN12C renal): 23 µM
TGI (SR leukemia): 30.3 µM
TGI (UACC-257 melanoma): 21.4 µM

C=C[C@H]1C=Cc2c(OC)cccc2[C@@H]1COP1(=S)NC(C)C(c2ccccc2)O1 (stereo partly drawn)
TGI (786-0 renal): > 100 µM
TGI (CCRF-CEM leukemia): > 100 µM
TGI (KM12 colon): > 100 µM
TGI (NCI-H522 lung): > 100 µM
TGI (SF-268 CNS): > 100 µM
TGI (SK-MEL-28 melanoma): > 100 µM
TGI (SN12C renal): > 100 µM

N#CSc1ccc(S(N)(=O)=O)cc1
TGI (786-0 renal): 65.2 µM
TGI (CCRF-CEM leukemia): 88.7 µM
TGI (KM12 colon): > 100 µM
TGI (NCI-H522 lung): 26.5 µM
TGI (PC-3 prostate): > 100 µM
TGI (SF-268 CNS): > 100 µM
TGI (SK-MEL-28 melanoma): > 100 µM
TGI (SN12C renal): > 100 µM
TGI (UACC-257 melanoma): > 100 µM

c1ccc2c(CNCCCCCCCCCCCCNCc3cccc4ccccc34)cccc2c1
TGI (786-0 renal): 3.23 µM
TGI (CCRF-CEM leukemia): 3.2 µM
TGI (KM12 colon): 2.99 µM
TGI (NCI-H522 lung): 3.35 µM
TGI (SF-268 CNS): 4.84 µM
TGI (SK-MEL-28 melanoma): 3.38 µM
TGI (SN12C renal): 13.6 µM
TGI (SR leukemia): 2.69 µM
TGI (UACC-257 melanoma): 3.17 µM

CCCCCCNCCCNc1c2ccccc2nc2cccc([N+](=O)[O-])c12
GI50 (786-0 renal): 0.0239 µM
TGI (786-0 renal): 0.0416 µM and 0.193 µM
GI50 (CCRF-CEM leukemia): 0.0277 µM
TGI (CCRF-CEM leukemia): 0.17 µM and 0.182 µM
TGI (KM12 colon): 0.0352 µM and 0.0335 µM
TGI (NCI-H522 lung): 0.0421 µM
TGI (PC-3 prostate): 0.0878 µM and 0.393 µM
GI50 (SF-268 CNS): 0.038 µM
TGI (SF-268 CNS): 0.0522 µM and 0.405 µM
GI50 (SK-MEL-28 melanoma): 0.0534 µM
TGI (SK-MEL-28 melanoma): 0.323 µM and 0.375 µM
TGI (SN12C renal): 0.12 µM
GI50 (UACC-257 melanoma): 0.059 µM
TGI (UACC-257 melanoma): 0.252 µM and 0.261 µM

Cc1ccc(N2C(=O)C(Cl)=C(Cl)C2=O)cc1
TGI (786-0 renal): 31 µM
TGI (CCRF-CEM leukemia): 23.4 µM
TGI (KM12 colon): 45.2 µM
TGI (NCI-H522 lung): 28.6 µM
TGI (SF-268 CNS): 37.8 µM
TGI (SK-MEL-28 melanoma): 31.5 µM
TGI (SN12C renal): 33.7 µM
TGI (SR leukemia): 54.2 µM
TGI (UACC-257 melanoma): 63.9 µM

O=NN(CCCl)C(=O)N[C@H]1CCCC[C@@H]1Cl
TGI (786-0 renal): > 100 µM
TGI (CCRF-CEM leukemia): 43.7 µM
TGI (KM12 colon): > 100 µM
TGI (NCI-H522 lung): > 100 µM
TGI (SF-268 CNS): > 100 µM
TGI (SK-MEL-28 melanoma): > 100 µM
TGI (SN12C renal): > 100 µM
TGI (SR leukemia): 17 µM

COc1cc(/C=C2\C[C@H]3[C@@H]4CC=C5C[C@@H](OC(C)=O)CC[C@]5(C)[C@H]4CC[C@]3(C)[C@H]2OC(C)=O)ccc1OCCN1CCCCC1
GI50 (786-0 renal): 12.3 µM
TGI (786-0 renal): 21.3 µM
GI50 (KM12 colon): 14.4 µM
TGI (KM12 colon): 46.1 µM
GI50 (NCI-H522 lung): > 50 µM
TGI (NCI-H522 lung): > 50 µM
GI50 (PC-3 prostate): 24.7 µM
TGI (PC-3 prostate): > 50 µM
GI50 (SF-268 CNS): 35.7 µM
TGI (SF-268 CNS): > 50 µM
GI50 (SK-MEL-28 melanoma): 22.5 µM
TGI (SK-MEL-28 melanoma): > 50 µM
GI50 (SN12C renal): 10.8 µM
TGI (SN12C renal): 27.1 µM
GI50 (UACC-257 melanoma): 5.77 µM
TGI (UACC-257 melanoma): 13.6 µM

CSC1(CC(=O)N2CCCCC2)C(=O)Nc2ccccc21 (stereo not drawn)
TGI (786-0 renal): > 100 µM
TGI (KM12 colon): > 100 µM
TGI (PC-3 prostate): > 100 µM
TGI (SF-268 CNS): > 100 µM
TGI (SK-MEL-28 melanoma): > 100 µM
TGI (UACC-257 melanoma): > 100 µM

COC(=O)[C@@]12C=CC(=O)[C@H]3C[C@@H](C(C(C)C)C1)[C@]32OC (stereo partly drawn)
TGI (786-0 renal): > 100 µM
TGI (CCRF-CEM leukemia): > 100 µM
TGI (KM12 colon): > 100 µM
TGI (SF-268 CNS): > 100 µM
TGI (SK-MEL-28 melanoma): > 100 µM
TGI (SN12C renal): > 100 µM
TGI (UACC-257 melanoma): > 100 µM

O=C(C=Nc1ccccc1C(=O)[O-])c1cccs1.O=C(C=Nc1ccccc1C(=O)[O-])c1cccs1.[Zn+2]
TGI (786-0 renal): > 100 µM
TGI (CCRF-CEM leukemia): 65.3 µM
TGI (KM12 colon): > 100 µM
TGI (NCI-H522 lung): 47.9 µM
TGI (SF-268 CNS): 79.8 µM
TGI (SK-MEL-28 melanoma): > 100 µM
TGI (SN12C renal): > 10 µM
TGI (SR leukemia): > 100 µM
TGI (UACC-257 melanoma): 43 µM

COc1cc(N2CCC(N3CCN(C)CC3)CC2)ccc1Nc1ncc(Cl)c(Nc2ccccc2S(=O)(=O)C(C)C)n1
GI50 (786-0 renal): 1.12 µM
TGI (786-0 renal): 2.44 µM
GI50 (CCRF-CEM leukemia): 0.424 µM
TGI (CCRF-CEM leukemia): 5.86 µM
GI50 (KM12 colon): 0.352 µM
TGI (KM12 colon): 3.48 µM
GI50 (NCI-H522 lung): 0.525 µM
TGI (NCI-H522 lung): 2.03 µM
GI50 (PC-3 prostate): 2.16 µM
TGI (PC-3 prostate): 11.7 µM
GI50 (SF-268 CNS): 0.813 µM
TGI (SF-268 CNS): 2.44 µM
GI50 (SK-MEL-28 melanoma): 1.74 µM
TGI (SK-MEL-28 melanoma): 3.41 µM
GI50 (SN12C renal): 0.613 µM
TGI (SN12C renal): 14.2 µM
GI50 (UACC-257 melanoma): 1.23 µM
TGI (UACC-257 melanoma): 2.58 µM

CCCCCCCCCCCCCCCCCC[N+](C)(C)Cc1ccc(C[N+](C)(C)CCCCCCCCCCCCCCCCCC)cc1
TGI (786-0 renal): 39.1 µM
TGI (CCRF-CEM leukemia): 44.1 µM
TGI (KM12 colon): 39.4 µM
TGI (NCI-H522 lung): > 100 µM
TGI (SF-268 CNS): 43.1 µM
TGI (SK-MEL-28 melanoma): 35 µM
TGI (SN12C renal): 30.1 µM
TGI (SR leukemia): 5.63 µM
TGI (UACC-257 melanoma): 34 µM

Source: PubChem BioAssay (NCI)
